Results on 4 molecules are retold here after patent EP0103895A2, “Novel hydroxylamine derivatives, production and use thereof” (MEIJI SEIKA KABUSHIKI KAISHA, priority 1982, dated 1984).

Structures are written as SMILES. “And” between values parts separate entries of the source, which are not always exact repeats. Equal entries are not always repeated. Where two headings read alike, the source gives them in different places. Bounds are passed on as bounds.

For test [1], the system named is canine whipworm (Trichuris vulpis). The experiment in a line: Anthelmintic test in naturally infected dogs with mixed infections, E.P.G. on 7th day: canine whipworm (Test Examples A3, B3, C3, D3). In kind it is in vivo. As to conditions: for Change of E.P.G. 7th day: one administration; for anthelmintic effect: dogs with mixed infections (Trichuris vulpis, Ancylostoma caninum, Toxocara canis; statement covers all three). On the procedure: (§1) Three dogs with mixed infections by canine whipworm (Trichuris vulpis), canine hookworm (Ancylostoma caninum) and canine roundworm (Toxocara canis) (naturally infected dogs) were employed in a group of two and a group of one.
(§2) The compound provided for the test was Compound No.Al, and 20 mg/Kg thereof was placed in a gelatin capsule per 1 Kg of body weight, and administered orally to the two dogs. As control, only a gelatin capsule was administered orally to the one dog.
(§3) Before administration and on the 7th day after administration, fecal matter testing was conducted to calculate the E.P.G., and the anthelmintic effect was judged by the changing of the E.P.G. to negative.
(§4) As control, only gelatin capsules were administered orally to the one dog.
(§5) The same method as in Test Example A3, but the compound provided for the test was Compound No. Cl. 30 mg/Kg of this compound was placed in a gelatin capsule per 1 Kg of body weight and administered orally to the two dogs. As control, only gelatin capsules were administered orally to the one dog.

In test [2] the test system is canine roundworm (Toxocara canis). Description: Anthelmintic test in naturally infected dogs with mixed infections, E.P.G. on 7th day: canine roundworm (Test Examples A3, B3, C3, D3). In kind it is in vivo. The note with it: dog; for Change of E.P.G. 7th day: one administration. On the procedure:
as §1, §2, §3, §4, §5

For test [3], the system named is canine filaria; Dirofilaria immitis. Description: Test of anthelmintic effect against canine filaria in naturally infected dogs, subcutaneous injection, microfilaria in blood and adult filaria at autopsy (Test Examples A10, B10, C10, D10). It counts as in vivo. The note with it: for inhibition in vivo at 30 mg/kg: Dirofilaria immitis, sc, 240 h.
In test [4] the test system is canine hookworm (Ancylostoma caninum). The experiment in a line: Anthelmintic test in naturally infected dogs with mixed infections, E.P.G. on 7th day: canine hookworm (Test Examples A3, B3, C3, D3). In kind it is in vivo. As to conditions: dog; for Change of E.P.G. 7th day: one administration. On the procedure:
as §1, §2, §3, §4, §5

The test system of test [5] is fowl roundworm (Ascaridia galli). The experiment in a line: Anthelmintic test in chickens artificially infected with fowl roundworm, single oral dose in gelatin capsule, worm bodies counted within 48 hours (Test Examples A1, B1, C1, D1). In kind it is in vivo. As to conditions: Ascaridia galli, po, 48 h, read-out: Anthelmintic effect after 48 hours. In short, it runs like this: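 Groups of three chickens with confirmed Ascaridia galli infection given a single oral dose in gelatin capsule (10 and 20 mg/kg in A1 and B1; 30 and 50 mg/kg in C1; 15 and 30 mg/kg in D1). Worms expelled over 48 h and those remaining in the gut at necropsy counted to give anthelmintic percentage.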

The test system of test [6] is fowl roundworm (As. galli). The experiment in a line: Anthelmintic test in chickens artificially infected with fowl roundworm, compound added to feed, E.P.G. and worm count up to 21st day (Test Examples A2, B2, C2, D2). It counts as in vivo, Ascaridia galli.
Test [7] deals with stomach worm (Haemonchus controtus). The experiment in a line: Anthelmintic test against cow stomach worm in naturally infected cows, E.P.G. on 7th day (Test Examples A6, B6, C6, D6). It counts as in vivo. The note with it: for Change of E.P.G. 7th day / Change of E.P.G. Before administration: cow, Haemonchus controtus; for Change of E.P.G. 7th day: one administration; for anthelmintic effect: cows. On the procedure: Three cows infected with stomach worm (naturally infected cows) were employed by grouping them into a group of two and a group of one.
(§6) As control, only gelatin capsules were administered orally to the one cow.
as §3, §6, §6

For test [8], the system named is Diphyllobothrium erinacei. The experiment in a line: Test of anthelmintic effect against Diphyllobothrium erinacei (tapeworm) in experimentally infected cats (Test Examples A5, B5, C5, D5).
Test [9] concerns Liver fluke; Fasciola hepatica (F. hepatica). Description: Test of anthelmintic effect against rat infected experimentally with liver fluke (Test Examples A11, B11, C11, D11). It counts as in vivo. The note with it: for anthelmintic effect: rats, five administrations in a dose of 50 mg/Kg each.
Test [10] concerns swine whipworm (Trichuris suis). The experiment in a line: Test of anthelmintic effect in naturally infected pigs, E.P.G. on 7th day: swine whipworm (Test Examples A9, B9, C9, D9). In kind it is in vivo. On the procedure: (§7) Six pigs infected with swine roundworm and swine whipworm (naturally infected pigs) were employed in groups each of two pigs.
(§8) As a control, only gelatin capsules were administered orally to the two pigs.
(§9) Before administration and on the 7th day after. administration, fecal matter testing was conducted to calculate the E.P.G., and the anthelmintic effect was judged by the changing of the E.P.G. to negative'.
(§10) 50 mg of each compound was placed in a gelatin capsule per 1 Kg of body weight and administered orally to each of the two pigs. As control, only gelatin capsules were administered orally to two pigs.
(§11) 30 mg of each compound was placed in a gelatin capsule per 1 Kg of body weight and administered orally to each of the two pigs. As control, only gelatin capsules were administered orally to two pigs.

Test [11] relates to swine roundworm (Ascaris suum). Description: Test of anthelmintic effect in naturally infected pigs, E.P.G. on 7th day: swine roundworm (Test Examples A9, B9, C9, D9). In kind it is in vivo. On the procedure: as §7, §8, §9, §10, §11
For test [12], the system named is Trichostrongylidae (Trichostrongylus colubriformis). Description: Anthelmintic test against sheep Trichostrongylidae in naturally infected sheep, E.P.G. on 7th day (Test Examples A7, B7, C7, D7). In kind it is in vivo. On the procedure: Two sheep infected with Trichostrongylidae (naturally infected sheep) were employed.
The compound provided for the test was Compound No. Al, 15 mg of which was placed in a gelatin capsule per 1 Kg of body weight and administered orally to one of the sheep. As a control, only gelatin capsules were administered orally to the other sheep.
as §3
As control, only gelatin capsules were administered orally to the other sheep.
As control, only gelatin capsule was administered orally to the other sheep.

[13] abbreviates: 30 mg/Kg oral in gelatin capsule.
Where [14] appears, read: before 30 mg/Kg oral (baseline).
Where [15] appears, read: chicken, 30 mg/Kg oral in gelatin capsule, chickens No.1-3.
Where [16] appears, read: Ascaridia galli, feed or water, 504 h, chicken, 25 ppm in feed, read-out: Anthelmintic effect.
Setting [17] is: Ascaridia galli, feed or water, 504 h, chicken, 50 ppm in feed, read-out: Anthelmintic effect.

`C=CCON(CC=C)C(C)=O` [Compound C1, N,O-diallyl-N-acetylhydroxyl- amine]: the “Change of E.P.G. 7th day” value in [1] (dog, Trichuris vulpis, 30 mg/Kg oral in gelatin capsule) turned out to be 0; in test [2] (setting [13]) it was 0; in test [4] (setting [13]), 0; in test [7] (20 mg/Kg oral in gelatin capsule) it was 0. Further, the “Change of E.P.G. Before administration” value in test [1] (dog, Trichuris vulpis, before 30 mg/Kg oral (baseline)) was 2,300 and 4,200; in [2] (setting [14]) it was 3,300 and 3,100; in test [4] (setting [14]) it was 4,500 and 6,600; in test [7] (before 20 mg/Kg oral (baseline)), 2,200 and 1,400. Besides, the “anthelmintic effect” value in test [1] (one administration of 30 mg/Kg) and in [7] (one administration of 20 mg/Kg) was “marked anthelmintic effect” in each case. The inhibition in vivo at 30 mg/kg in test [3] (dog, 30 mg/Kg x 3, subcutaneous injection, read-out: Effect on adult filaria: Percent of worms killed) is 86%; in [3] (dogs, administration of 30 mg/Kg repeated three times, given as about 50% or more, read-out: anthelmintic effect against adult filaria) it was no less than 50%; in test [5] (setting [15]), 100%. Moreover, the “Number of microfilaria/20 µl On 10th day after the last administration” value in [3] (dog, 30 mg/Kg x 3, subcutaneous injection, suspension in 1% Tween 80) is on record as 0 /20 µl. Besides, the “Effect on adult filaria: Number of worms killed/ Total parasite” value in test [3] (dog, 30 mg/Kg x 3, subcutaneous injection, 30 mg/kg) is 13/15 and 16/21. For the same molecule, in test [3] (dogs, administration of 30 mg/Kg repeated three times), the “anthelmintic effect against microfilaria (mf)” value is “marked anthelmintic effect”. The inhibition in vivo at 50 mg/kg in test [5] (chicken, 50 mg/Kg oral in gelatin capsule, chickens No.1-3) amounted to 100%. For the same molecule, in test [6] (setting [16]), the inhibition in vivo at 25 ppm turned out to be 100%. Besides, the inhibition in vivo at 50 ppm in test [6] (setting [17]) was 100%. Further, the “Change of E.P.G. 21st day” value in test [6] (chicken, 25 ppm in feed) is 0; in test [6] (chicken, 50 ppm in feed) it was 0.

Consider `C=CCN(OCCCC)C(=O)c1ccccc1` [Compound B19, N-allyl-N-benzoyl-0-butylhydroxylamine], for which the “Number of worm bodies remaining in enteron” value in [8] (cats infected with 5 plerocercoids, 50 mg/Kg x 5 times orally, autopsy ten days after administration, one value per cat) was determined as 0. Also, the “Worm egg detection on 10th day after administration” value in test [8] (cats, 50 mg/Kg x 5 orally, one value per cat (Table B7)) is “-”. The “anthelmintic effect” value is “marked anthelmintic effects” in test [8] (cats, 5 continuous administrations of 50 mg/Kg); “marked antihelmintic effect” in test [9]; “marked anthelmintic effect” in test [11] (pigs infected with swine roundworm and swine whipworm (statement covers both), one administration of 50 mg/Kg). Also, the “Condition of fluke body” value in test [9] (rat, 50 mg/Kg x 5) is “dead”. Besides, the “Presence or absence of fluke egg in fecal matter On 21st day after the last administration” value in test [9] (rat, 50 mg/Kg x 5) was “-”. The inhibition in vivo at 30 mg/kg in [5] (chickens, 30 mg/Kg orally in gelatin capsule, one value per chicken (No.1-3)) is 100%. Besides, the inhibition in vivo at 50 mg/kg in [5] (chickens, 50 mg/Kg orally in gelatin capsule, one value per chicken (No.1-3)) was found to be 100%. The inhibition in vivo at 20 ppm in test [6] (Ascaridia galli, po, 504 h, chickens, 20 ppm added to feed, worm count on 21st day, one value per chicken, read-out: Anthelmintic effect) was in the range of 80 to 90%. Besides, in test [6] (Ascaridia galli, po, 504 h, chickens, 50 ppm added to feed, worm count on 21st day, one value per chicken, read-out: Anthelmintic effect), the inhibition in vivo at 50 ppm stood at 100%. For the same molecule, the “Change of E.P.G. 7th day” value in [10] (pigs, 50 mg/Kg orally once, one value per pig) amounted to 0 E.P.G; in [11] (pigs, 50 mg/Kg orally once, Ascaris suum, one value per pig), 0 E.P.G.

In the case of `C#CCNOCC=C.Cl` [Compound D14, N-propargyl-O-allylhydroxylamine hydrochloride], the “Change of E.P.G. 7th day” value in [1] (dog, Trichuris vulpis, 20 mg/Kg) came out at 0; in test [2] (20 mg/Kg), 0; in test [4] (20 mg/Kg), 0. For the same molecule, the “anthelmintic effect” value in test [1] (one administration of 20 mg/Kg) and in test [9] was “marked anthelmintic effect” in each case. The “Change of E.P.G. Before administration” value in test [4] (before 20 mg/Kg (baseline), hydrochloride) was 3,300 and 6,800. In addition, in [9] (rat, 50 mg/Kg x 5), the “Condition of fluke bodies” value is “dead”. Further, the “Presence or absence of fluke egg in fecal matter On 21st day after the last administration” value in [9] (rat, 50 mg/Kg x 5) was “-”. Moreover, the inhibition in vivo at 25 ppm in test [6] (setting [16]) is 80 to 90%. The inhibition in vivo at 50 ppm in test [6] (setting [17]) amounted to 100%.

As for `C=CCNOCC.Cl` [Compound D1, N-allyl-O-ethylhydroxylamine hydrochloride], the “Change of E.P.G. 7th day” value was 0 in [12] (Trichostrongylus colubriformis, 15 mg/Kg, one administration); 0 in test [10] (pig, 20 mg/Kg, one administration); 0 in [11] (pig, Ascaris suum, 20 mg/Kg, one administration); 0 in test [7] (15 mg/Kg). In addition, the “Change of E.P.G. Before administration” value in test [12] (Trichostrongylus colubriformis, before 15 mg/Kg (baseline)) was 2,900; in test [10] (pig, before 20 mg/Kg (baseline), hydrochloride), 6,600 and 4,200; in [11] (pig, Ascaris suum, before 20 mg/Kg (baseline), hydrochloride) it was 2,700 and 3,100; in test [7] (before 15 mg/Kg (baseline), hydrochloride) it was 3,700 and 5,400. For the same molecule, the “anthelmintic effect” value in test [12] (one administration of 15 mg/Kg) and in [7] (one administration of 15 mg/Kg) was “marked anthelmintic effect” each time. The inhibition in vivo at 15 mg/kg in test [5] (chicken, 15 mg/Kg oral in gelatin capsule, chickens No.1-3) was 80 to 90%. For the same molecule, the inhibition in vivo at 30 mg/kg in test [5] (setting [15]) was found to be 100%. Besides, the inhibition in vivo at 25 ppm in test [6] (setting [16]) was 80 to 90%. Further, the inhibition in vivo at 50 ppm in test [6] (setting [17]) was determined as 100%.
